Laboratory results taken from patent publication US20190292223A1, “SAP AND PEPTIDOMIMETICS FOR TREATMENT OF EYE DISEASE” (Arch Biosurgery, Inc., priority 2018, published 2019).
Cy5.5 = Cy5.5 dye

Tests used:
[1] = tested on: activated retinal microglial cells; experiment: Lipopolysaccharide ocular inflammation model, 1 μl LPS alone or with SAP intravitreally, sacrifice after 24 hours (Example 2); format: in vivo, Sprague-Dawley rats
Protocol: Adult white Sprague-Dawley rats with a weight of between 200 and 240 grams were housed in a 12 hours light/12 hours night cycle with free access to food and water. The animals were randomly divided into a study or control groups.
Intravitreal injections, immunohistochemical staining and assessment of intraocular inflammation were generally performed as described in Example 1.
1 μl sterile lipopolysaccharide (LPS; from S. typhimurium; catalog no. L-7261; Sigma-Aldrich, St. Louis, Mo.) either alone or in combination with (RADA)2 (SEQ ID NO: 88) solutions at 0.1%, 1.0%, and 10.0% were administered via direct intravitreal injections. The animals were sacrificed 24 hours after treatment. The experiments were repeated at least 5 times.
In some experiments, different SAP, including S2 (H2N(EARA)COOH; SEQ ID NO: 92), S3 (H2N(RARA)CONH2; SEQ ID NO: 413), and S5 (H2N(EARA)2CONH2; SEQ ID NO: 414), were evaluated as described above for (RADA)2 (SEQ ID NO: 88).
Finally, a conjugate of an EARA based SAP and a tissue-specific motif (MSCRAMM; SEQ ID NO: 141) was also evaluated using this lipopolysaccharide ocular inflammation model. Experiments were performed as described above for (RADA)2 (SEQ ID NO: 88). Briefly, 1 μl sterile lipopolysaccharide (LPS; from S. typhimurium; catalog no. L-7261; Sigma-Aldrich, St. Louis, Mo.) either alone or in combination with MSCRAMM(EARA)4 (SEQ ID NO: 432) solutions at 1.0%, and 3.0% were administered via direct intravitreal injections. The animals were sacrificed 24 hours after treatment. The experiments were repeated three times for each SAP conjugate concentration (that is, n=3 for 1%; n=3 for 3%).

[2] = set-up: species or system Sprague-Dawley rats; conditions: rat, in vivo
Protocol: The fate of SAP upon application to the eye was investigated. Specifically, the ability of SAP to reach the retina via application of eye drop solutions of the SAP to the cornea was evaluated using an SAP-Cy5 conjugate.
Adult white Sprague-Dawley rats weighing between 200 and 240 grams were housed in a 12 hour light/12 hour night cycle with free access to food and water. The animals were randomly divided into experimental or control groups.
Conjugates of Cy5.5 and RADA (SEQ ID NO: 57), Cy5.5 and RADARADA ((RADA)2; SEQ ID NO: 88), and Cy5.5 and H2N(RADA)4CONH2 (SEQ ID NO: 433) were prepared according to a modified protocol of Chen X., et al., Cancer Res., 64(21): 8009-8014 (2004).
In one experiment, RADA-4-Cy5.5 conjugate was prepared as follows: 0.5 mg of H2N(RADA)4CONH2 was dissolved in 50 μL of DMSO to a final concentration of […] in DMSO. The solution was mixed with 20 μL of diethyl isopropyl amine (DIPEA) to adjust the pH to 12. A solution of Cy5.5 dyes (1.0 mg in 20 μL of DMSO) was added at room temperature for conjugation and the mixture was periodically vortexed over 2 hours.
In some experiments, the RADA-4 solution was prepared with water as the solvent, for example: to a solution of RADA-4 (1.8 mg of H2N(RADA)4CONH2 (SEQ ID NO: 433) in 500 μL of Milli-Q water), 1 μL of Diisopropyl ethylene amine (DIPEA) was added to obtain pH 8 from 4. To prepare a working Cy5.5 stock, 165 μL of Milli-Q water was added to 165 μL Cy5.5 to make a 6.59×10^−7 M solution. The final conjugate was prepared by mixing equal volumes (165 μL) of the buffered (pH 8) (RADA)4 solution and Cy5.5 solution at room temperature for 2 hours.
Eye drops were applied to both eyes of rats. The experimental group of rats were administered 2 μL of Cy5.5-(RADA)4 conjugate via drops, while control rats were administered Cy5.5 only via drops. The experiments were repeated using Cy5.5 conjugated to RADA (Cy5.5(RADA)COOH; SEQ ID NO: 442) and Cy5.5 conjugated to (RADA)2 (Cy5.5(RADA)2COOH; SEQ ID NO: 444).
The rats were sacrificed 24 hours or 3 days post treatment. The eye balls of the rats were harvested and were then fixed in 4% paraformaldehyde (PFA) overnight. Excessive PFA was washed with 0.1M phosphate buffer (0.1MPB) 3 times (30 minutes each). The eyeballs were then dehydrated with 30% sucrose solution (30 g sucrose in 100 mL of 0.1 MPB) overnight, while replenishing the sucrose solution once for at least 6 hours. As necessary, the shape of the eyeballs was reformed with O.C.T. (Optimal Cutting Temperature compound; TISSUE-TEK® O.C.T.; CA) by injecting through the optic nerve. Each eye was embedded entirely in a mount with O.C.T. in liquid nitrogen to form frozen blocks. Blocks containing the eye samples were then sectioned at 20 microns and were placed on charged slides and allowed to dry. The slides were then rinsed to remove excess OCT and cover-slipped. The fate of the Cy5.5-RADA conjugate was investigated by tracing the color of the Cy5.5 in the eye. Visualization was performed with light microscopy and photographs were taken with a SPOT camera affixed to the Zeiss microscope.

[3] = tested on: activated retinal microglial cells; experiment: Lipopolysaccharide ocular inflammation model, intravitreal co-injection, quantification of activated retinal microglial cells (Example 1); format: in vivo, Sprague-Dawley rats; set-up: TOTAL AREA WEIGHT (total retinal area weight-averaged density; amount of inflammation) / JEB #: unit not given here; conditions: for JEB # / TOTAL AREA WEIGHT (total retinal area weight-averaged density; amount of inflammation): 0.5% RADA + LPS intravitreal
Protocol: The anti-inflammatory effect of SAP was examined using the lipopolysaccharide ocular inflammation model, and measurement of microglial cell activation was assessed as an indicator of inflammation. Morphological changes in macrophage cells, such as microglial cells, can be used as a marker of the presence and extent of inflammation. Methods for identifying and scoring variations in microglial cell morphology in response to inflammatory stimuli are described in the art (see, for example, Jonas, et al., PLoS ONE 7(2): e30763 (2012)).
Adult white Sprague-Dawley rats weighing between 200 and 240 grams were housed in a 12 hour light/12 hour night cycle with free access to food and water. The animals were randomly divided into study or control groups.
Animals were anesthetized by an intraperitoneal injection of xylazine 2% (5 mg/kg body weight) and ketamine 10% (100 mg/kg body weight). Topical anesthesia was additionally provided by repeated administration of proparacaine (0.5%) drops onto the cornea. A thorough disinfection of the ocular surface, the lid margins and the periocular skin was carried out with iodine 5% solution.
Using a glass pipette pulled to the size of a 30 gauge needle and attached to a syringe, 2 μl of sterile, pyrogen-free saline containing lipopolysaccharides from Salmonella typhimurium (catalog no. L-7261; Sigma-Aldrich, St. Louis, Mo.) was intravitreally injected.
For the primary experiment, the study included 40 Sprague-Dawley rats. All intravitreal injection volumes were of 2 μl, to reduce the effects of increased ocular pressure. All intravitreal injections of lipopolysaccharides (LPS) volumes were 4 μg at a concentration of 2 μg/μL.
The control groups (n=20) received either an intravitreal saline injection (n=5), lipopolysaccharide (LPS) alone ([…]), or no injection as a normal control group (n=5). Animals in the SAP study group (n=15) also received the self-assembling peptide (amino acid sequence RADARADARADARADA; “RADA-16”) in concentrations of 0.5% of SAP/2 μL.
At one, three and seven days after the injections, the animals were sacrificed, and the globes were immunohistochemically stained and histomorphometrically examined. The contralateral eye from the LPS group was also examined.
The eyes were embedded with Optimal Cutting Temperature compound (Tissue-Tek® O.C.T., Ted Pella, Inc. Redding, Calif.) after the lenses were removed. The globes were sectioned and placed on subbed slides. After being washed in 0.01M phosphate buffered saline for 10 minutes, the sections (15 μm) were immersed in a blocking solution containing 0.3% triton, 2.5% bovine serum albumin (BSA; Proliant Co, Ankeny, Iowa, USA) and 2% goat serum for 30 minutes. The sections were incubated in a primary antibody diluted solution overnight at 4° C., containing rabbit anti-IBA1 (Ionized calcium Binding Adaptor molecule 1; 1:500; Wako Pure Chemical Industries, Ltd. Osaka, Japan) and mouse anti rat CD 68 (ED1) (1:1000; AbD Serotech, D-40470 Dusseldorf, Germany). The sections were then washed in 0.01M phosphate buffered saline (10 minutes, 3 times), and incubated with secondary antibody diluted solution at room temperature for 2 hours (Goat-anti-rabbit 568, Goat-anti-mouse Alexa 488, (Invitrogen, Carlsbad, Calif., 1:400)). The slides were then washed in 0.01M phosphate buffered saline (10 minutes, 3 times) and cover slipped with fluorescein mounting medium with DAPI (4′,6-diamidin-2′-phenylindol-dihydrochloride; Dako Ltd, Glostrup, Denmark). All images were taken under a 20× objective with a Carl Zeiss Flour microscope (Carl Zeiss Inc. Oberkochen, Germany) fitted with a spot camera. All illumination levels were fixed during image acquisition.
The amount of intraocular inflammation was assessed by quantification of immunohistochemically labeled activated retinal microglial cells, which function as the immune mediators of the central nervous system. […]

[4] = 1.0% and 3.0% solutions with LPS, 24 hours

In the case of “H2N(EARA)2CONH2 (H-EARAEARA-NH2) [SAP S5]”, the “signs of retinal inflammation compared to control” value ([1]; along with LPS, FIG. 5) was “marked reduction”.
With Cy5.5(RADA)4CONH2 the localization [2] was “localize to the retina”, the “pink coloration (Cy5.5) in the retina” value [2] was “pink coloration was observed throughout the outer retina” and the “transport across the cornea / localization” value [2] was “localize within the retina”.
With Cy5.5 [reference compound] the “pink coloration (Cy5.5) in the retina” value [2] was “no pink coloration was observed in any part of the retina or optic nerve head” and the “transport across the cornea / localization” value [2] was “not transported across the cornea”.
With H2N(RARA)CONH2 (H-RARA-NH2) [SAP S3] the LPS induced inflammation ([1]; along with LPS, FIG. 5) was “reduced LPS induced inflammation to normal levels” and the “signs of retinal inflammation compared to control” value ([1]; along with LPS, FIG. 5) was “marked reduction”.
With RADARADA [(RADA)2] the “signs of retinal inflammation compared to control (LPS alone)” value ([1]; all concentrations (0.1%, 1.0%, 10.0%), 24 hours, FIG. 4) was “marked reduction” and the “density of activated retinal microglial cells compared to controls (LPS alone)” value ([1]; combination injection with LPS, 24 hours) was “significantly lower”.
For “Cy5.5(RADA)2COOH ({Cy5.5}-RADARADA-OH) [Cy5.5 conjugated to RADARADA]”, the localization [2] was “localize to the retina”.
For “Cy5.5(RADA)COOH ({Cy5.5}-RADA-OH) [Cy5.5 conjugated to RADA]”, the localization [2] was “localize to the retina”.
With “MSCRAMM(EARA)4 (MSCRAMMEARAEARAEARAEARA) [conjugate of an EARA based SAP and a tissue-specific motif (MSCRAMM]” the ED1 reactivity [1, 4] was “no evidence of ED1 reactivity”, the “activation of microglia (JEB score)” value [1, 4] was no more than 4 and the “inflammation in treated animals” value [1, 4] was “no inflammation”. For the same substance, the “signs of retinal inflammation compared to control (LPS only)” value [1, 4] was “reduction”.
For RADARADARADARADA, the “JEB #” value ([3]; Day 1) was 11.63, the “TOTAL AREA WEIGHT (total retinal area weight-averaged density; amount of inflammation)” value (shortened to “TOTAL AREA WEIGHT”) ([3]; Day 1) was 74.99 and the “TOTAL AREA WEIGHT” value ([3]; Day 1, listed as SAP) was 75.0±26.6. The “JEB #” value ([3]; Day 3) was 8.502, the “TOTAL AREA WEIGHT” value ([3]; Day 3) was 55.91 and the “TOTAL AREA WEIGHT” value ([3]; Day 3, listed as SAP) was 55.9±45.9. The “JEB #” value ([3]; Day 7) was 9.158, the “TOTAL AREA WEIGHT” value ([3]; Day 7) was 52.66 and the “TOTAL AREA WEIGHT” value ([3]; Day 7, listed as SAP) was 52.7±47.7. For the same substance, the “amount of inflammation compared to normal or saline injected controls” value ([3]; 0.5% SAP + LPS) was “no significant difference”, the “level of inflammation compared to LPS-only control group” value ([3]; 0.5% SAP + LPS) was “significantly (P<0.001) lower” and the “density of activated retinal microglial cells compared to LPS controls” value ([3]; SAP + LPS vs LPS-only) was “significantly lower”. For the same substance, the “signs of retinal inflammation” value ([3]; intraocular SAP along with LPS) was “marked reduction”.
With H2N(EARA)COOH (H-EARA-OH) [SAP S2] the “signs of retinal inflammation compared to control” value ([1]; along with LPS, FIG. 5) was “marked reduction”.
